Here are results for twelve molecules from patent publication US11168095B2, “ASK1 inhibiting agents” (BIOGEN MA INC., priority 2017, dated 2021).

The target of one assay is GST-hASK1 (Homo sapiens (Human), UniProt Q99683). Nature of the assay: ASK1 TR-FRET assay. It counts as biochemical. Particulars: 5 nM GST-hASK1, 100 μM ATP, 2 μM STK Substrate 3. As for the experimental part:
The protein kinase activity of 5 nM GST-hASK1(Life Technologies PV4011) was assayed with 100 μM ATP and 2 μM of HTRF biotinylated STK Substrate 3 (CisBio Kit 62ST3PEJ), at ambient temperature in 25 mM Hepes, pH 7.5, 50 mM NaCl, 10 mM MgCl2, 0.02% Brij-35, 1 mM DTT, and 1% DMSO.
After a 10 minute pre-incubation, ASK1 protein kinase activity was initiated by addition of 10 μL of 300 μM ATP.
Background: In TR-FRET formats the signal depends on donor and acceptor labels being close together.

Assay [1] concerns the target ASK1 T838 auto phosphorylation in HEK-293T cells (Homo sapiens (Human), UniProt Q99683). Kind of assay: ASK1 (AUTO PHOS T838) assay, MSD format. It counts as cell-based. The note with it: read-out: IC50.
Setting [2] is: HEK 293T cells transfected with ASK1-V5 full length plasmid, compounds 1 hr at 37° C.

SMILES strings stand for the structures. Read-outs that look alike come from different tables or passages of the source.

Sequence of ASK1 T838 auto phosphorylation in HEK-293T cells (Q99683 whole entry): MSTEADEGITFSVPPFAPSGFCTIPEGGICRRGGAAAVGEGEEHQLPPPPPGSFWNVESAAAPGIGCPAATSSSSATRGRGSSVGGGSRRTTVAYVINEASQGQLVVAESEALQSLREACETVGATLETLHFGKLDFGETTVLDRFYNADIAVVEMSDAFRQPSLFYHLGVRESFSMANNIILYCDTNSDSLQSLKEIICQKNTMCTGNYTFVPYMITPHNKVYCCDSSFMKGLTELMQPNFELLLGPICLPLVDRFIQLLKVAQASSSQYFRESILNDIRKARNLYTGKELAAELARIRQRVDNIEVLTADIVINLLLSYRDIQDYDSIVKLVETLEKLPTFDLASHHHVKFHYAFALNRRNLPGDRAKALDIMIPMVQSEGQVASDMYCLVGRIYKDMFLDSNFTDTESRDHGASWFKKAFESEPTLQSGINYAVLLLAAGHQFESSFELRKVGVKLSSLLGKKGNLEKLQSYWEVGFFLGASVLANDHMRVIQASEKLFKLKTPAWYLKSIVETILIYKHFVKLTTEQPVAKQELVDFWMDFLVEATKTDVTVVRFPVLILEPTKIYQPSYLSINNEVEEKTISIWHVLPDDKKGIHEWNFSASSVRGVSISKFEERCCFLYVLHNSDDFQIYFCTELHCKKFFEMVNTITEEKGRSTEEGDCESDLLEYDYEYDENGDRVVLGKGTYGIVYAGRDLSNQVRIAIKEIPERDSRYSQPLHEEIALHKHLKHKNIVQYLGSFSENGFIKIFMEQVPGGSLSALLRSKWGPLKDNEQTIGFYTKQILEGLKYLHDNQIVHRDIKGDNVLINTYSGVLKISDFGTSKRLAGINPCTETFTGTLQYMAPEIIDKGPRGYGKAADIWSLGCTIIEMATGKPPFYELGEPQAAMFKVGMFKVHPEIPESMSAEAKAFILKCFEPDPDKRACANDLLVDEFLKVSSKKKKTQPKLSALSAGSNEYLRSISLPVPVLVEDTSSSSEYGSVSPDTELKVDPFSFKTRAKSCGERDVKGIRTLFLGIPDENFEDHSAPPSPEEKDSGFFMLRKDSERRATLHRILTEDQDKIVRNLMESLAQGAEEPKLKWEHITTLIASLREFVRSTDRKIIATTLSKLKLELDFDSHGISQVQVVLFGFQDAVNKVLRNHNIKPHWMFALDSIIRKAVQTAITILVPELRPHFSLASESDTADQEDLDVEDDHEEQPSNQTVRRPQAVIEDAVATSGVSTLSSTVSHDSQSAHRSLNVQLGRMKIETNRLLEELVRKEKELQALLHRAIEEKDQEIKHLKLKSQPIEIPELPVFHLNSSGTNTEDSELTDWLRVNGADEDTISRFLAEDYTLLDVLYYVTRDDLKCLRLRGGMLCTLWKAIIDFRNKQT
Sequence of GST-hASK1 (Q99683 649-946): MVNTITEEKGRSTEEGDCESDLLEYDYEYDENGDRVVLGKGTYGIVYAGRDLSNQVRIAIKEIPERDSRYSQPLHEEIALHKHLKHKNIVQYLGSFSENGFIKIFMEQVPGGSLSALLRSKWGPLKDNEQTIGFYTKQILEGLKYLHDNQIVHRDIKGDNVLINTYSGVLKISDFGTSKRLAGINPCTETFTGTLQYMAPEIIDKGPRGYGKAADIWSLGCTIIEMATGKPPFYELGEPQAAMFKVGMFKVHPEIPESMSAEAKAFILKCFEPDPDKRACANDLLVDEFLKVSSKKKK

With `O=C1Nc2cccc(n2)-c2nncn2C/C=C/COc2c1cccc2C(F)(F)F` [Example 166, (E)-5^3-(Trifluoromethyl)-1^4H-6-oxa-3-aza-2(2,6)-pyridina-1(3,4)-triazola-5(1,2)-benzenacyclodecaphan-8-en-4-one], the half-inhibitory concentration (IC50) against GST-hASK1 was 1 to 10 µM; in assay [1] (setting [2]), more than 10 µM.

As to `O=C1Nc2cccc(n2)-c2nncn2CCCCOc2cc(C(F)(F)F)ccc21` [Example 153, 5^4-(Trifluoromethyl)-1^4H-6-oxa-3-aza-2(2,6)-pyridina-1(3,4)-triazola-5(1,2)-benzenacyclodecaphan-4-one], the IC50 is less than 0.1 µM against GST-hASK1 and less than 1 µM in assay [1] (setting [2]).

As for `O=C1Nc2cccc(n2)-c2nncn2C/C=C\COc2ccc(F)cc21` [Example 159, (Z)-5^5-Fluoro-1^4H-6-oxa-3-aza-2(2,6)-pyridina-1(3,4)-triazola-5(1,2)-benzenacyclodecaphan-8-en-4-one], the IC50 is less than 0.1 µM against GST-hASK1 and less than 1 µM in assay [1] (setting [2]).

For `O=C1Nc2cccc(n2)-c2nncn2C/C=C\COc2c(Br)cccc21` [Example 164, (Z)-5^3-Bromo-1^4H-6-oxa-3-aza-2(2,6)-pyridina-1(3,4)-triazola-5(1,2)-benzenacyclodecaphan-8-en-4-one], the values for the concentration for half-maximal inhibition (IC50) (against GST-hASK1 (class given in words); in assay [1] (setting [2])) were not below 10 µM and more than 10 µM, respectively.

Consider `O=C1Nc2cccc(n2)-c2nncn2C/C=C\COc2ccc(N3CCOCC3)cc21` [Example 169, (Z)-5^5-Morpholino-1^4H-6-oxa-3-aza-2(2,6)-pyridina-1(3,4)-triazola-5(1,2)-benzenacyclodecaphan-8-en-4-one], for which the IC50 was less than 0.1 µM on GST-hASK1 and less than 1 µM in assay [1].

Turning to `C=Cc1ccc2c(c1)C(=O)Nc1cccc(n1)-c1nncn1CCCCO2` [Example 19, 5^5-Vinyl-1^4H-6-oxa-3-aza-2(2,6)-pyridina-1(3,4)-triazola-5(1,2)-benzenacyclodecaphan-4-one], the IC50 was less than 0.1 µM against GST-hASK1 and less than 1 µM in assay [1] (setting [2]).

Take `CN1C(=O)c2cc(Br)ccc2OCCCCn2cnnc2-c2cccc1n2` [Example 152, 5^5-Bromo-3-methyl-1^4H-6-oxa-3-aza-2(2,6)-pyridina-1(3,4)-triazola-5(1,2)-benzenacyclodecaphan-4-one]: the IC50 is not below 10 µM against GST-hASK1 (class given in words) and more than 10 µM in assay [1] (setting [2]).

Consider `O=C1Nc2cccc(n2)-c2nncn2CCCCOc2ccc(C3=CCOC3)cc21` [Example 14, 5^5-(2,5-Dihydrofuran-3-yl)-1^4H-6-oxa-3-aza-2(2,6)-pyridina-1(3,4)-triazola-5(1,2)-benzenacyclodecaphan-4-one], for which the values for the IC50 (at GST-hASK1; in assay [1] (setting [2])) were less than 0.1 µM and less than 1 µM, respectively.

In the case of `O=C1Nc2cccc(n2)-c2nncn2C/C=C/COc2ccc(F)cc21` [Example 158, (E)-5^5-Fluoro-1^4H-6-oxa-3-aza-2(2,6)-pyridina-1(3,4)-triazola-5(1,2)-benzenacyclodecaphan-8-en-4-one], the IC50 on GST-hASK1 was 0.1 to 1 µM; in assay [1] (setting [2]) it was 1 to 10 µM.

Consider `CCN1CCN(c2ccc3c(c2)C(=O)Nc2cccc(n2)-c2nncn2CCCCO3)CC1` [Example 13, 5^5-(4-Ethylpiperazin-1-yl)-1^4H-6-oxa-3-aza-2(2,6)-pyridina-1(3,4)-triazola-5(1,2)-benzenacyclodecaphan-4-one], for which the IC50 on GST-hASK1 is less than 0.1 µM; in assay [1] (setting [2]), less than 1 µM.

Regarding `O=C1Nc2cccc(n2)-c2nncn2C/C=C/COc2cc(C(F)(F)F)ccc21` [Example 154, (E)-5^4-(Trifluoromethyl)-1^4H-6-oxa-3-aza-2(2,6)-pyridina-1(3,4)-triazola-5(1,2)-benzenacyclodecaphan-8-en-4-one], the half-inhibitory concentration (IC50) lay in the range of 0.1 to 1 µM against GST-hASK1 and 1 to 10 µM in assay [1] (setting [2]).

Regarding `O=C1Nc2cccc(n2)-c2nncn2C/C=C\COc2c1cccc2C(F)(F)F` [Example 167, (Z)-5^3-(Trifluoromethyl)-1^4H-6-oxa-3-aza-2(2,6)-pyridina-1(3,4)-triazola-5(1,2)-benzenacyclodecaphan-8-en-4-one], the IC50 at GST-hASK1 (class given in words) was not below 10 µM; in assay [1] (setting [2]), more than 10 µM.

By IC50 is commonly meant the midpoint of a concentration-inhibition curve.
